Reference: PMC8957246, “Synthesis and diverse biological activity profile of triethylammonium isatin-3-hydrazones” (ADMET & DMPK, 2022)
Read-outs that look alike come from different tables or passages of the source.

What was measured:
Assay type in all cases: cell-based
[1] = system: Candida albicans ATCC 10231; assay: Antimicrobial activity, serial dilution (MIC/MBC), Ca; details: ATCC10231
Experimental: The antimicrobial activity of the test compounds was determined by the serial dilution technique in Muller Hinton Broth 2 and in Sabouradu broth for fungi. The cultures used for testing included Gram-positive bacteria: Staphylococcus aureus ATCC 6538P FDA 209P, Bacillus cereus ATCC 10702 NCTC 8035, Enterococcus faecalis ATCC 29212; Gram-negative bacteria: Escherichia coli ATCC 25922, Pseudomonas aeruginosa ATCC 9027, and fungi: Trichophyton mentagrophytes var. gypseum 1773, and Candida albicans ATCC 10231; methicillin-resistant strains of S. aureus (MRSA) was obtained from hospital patients with chronic tonsillitis in the Republican Clinical Hospital (Kazan, Russia). The bacterial load was 3.0 × 10^5 cfu/ml. The fungi load was 2.0 × 10^3 cfu/ml. The results were recorded every 24 h for 5-7 days. Cultures were incubated at 37 °C. The experiment was repeated three times. […] The minimum inhibitory concentration (MIC) was defined as the minimum concentration of a compound that inhibits the growth of the corresponding test microorganism. The growth of bacteria, as well as the absence of the growth due to the bacteriostatic action of compounds, were recorded.
Synthesized compounds were further evaluated for antimicrobial activity against test microorganisms: Staphylococcus aureus ATCC 209p (Sa), Bacillus cereus ATCC 8035 (Bc), Escherichia coli CDC F-50 (Ec), Enterococcus faecalis (Ef), Pseudomonas aeruginosa ATCC 9027, Aspergillus niger BKMF-1119, Trichophyton mentagrophytes var. gypseum 1773, and Candida albicans 855-653 including methicillin-resistant strains of S. aureus (MRSA 1 and MRSA 2). The minimum inhibitory (MIC) and minimum bactericidal (MBC) concentrations of ammonium salts were determined against these pathogens (Table 1). Due to the lack of activity of compounds 3a-g against Gram-negative bacterial strains and some fungi, the corresponding data are not shown.

[2] = system: Micrococcus luteus B-109; assay: Bactericidal activity, agar diffusion, M. luteus; details: Micrococcus luteus, B109, 2 mM/L
Text: (§1) Plant pathogenic bacterial strains Micrococcus luteus B-109, Pectobacterium atrosepticum 1043, Pectobacterium carotovorum subsp. carotovorum MI, Pseudomonas fluorescens EL-2.1, and Xanthomonas campestris B-610 and fungal strain Fusarium oxysporum IBPPM 543 were obtained from the specialized scientific culture collection of IBPPM RAS (WFCC no. 975, WDCM no. 1021) (CM IBPPM). Pathogenic fungus Phytophthora cactorum VKM F-985 provided by the All-Russian Collection of Microorganisms (VKM) and deposited at A.E. Favorsky Irkutsk Institute of Chemistry, SB RAS, was also used as test organism. Bacteria M. luteus, P. carotovorum subsp. carotovorum, P. atrosepticum, and Ps. fluorescens were grown in meat-peptone medium (BP), and X. campestris was grown in the medium with glucose, yeast extract, and calcium carbonate (GYCa). Solid media contained Bacto agar (18 g/L); pH was adjusted to 7.2-7.4. All bacterial cultures were grown at 28°C. The mycelial cultures of F. oxysporum and P. cactorum were grown on a glucose-peptone-yeast (GPY) nutrient medium at 27 °C. For inoculum preparation, both fungal strains were initially grown on the agar GPY in Petri dishes and then transferred into the seed medium by punching out 5 mm of the agar plate culture with a self-designed cutter.
(§2) Antibacterial and antifungal activities of the compounds were explored using the agar diffusion method and the technique of a phytopathogen radial growth inhibition. Method of diffusion in agar (measuring the diameter of growth inhibition zones) was used for determining the bactericidal activity. The 6-mm wells were made in ager medium (GYCa for Xanthomonas campestris or BP for other bacteria). Bacterial suspensions were distributed over the agar surface, and the tested compound's solution (150 μl) was added to each well. The width of growth inhibition zones around the wells was determined after incubation for 36-40 h.
(§3) The solutions of tested compounds were prepared with a concentration of 2 mmol/l (stock solution). For comparison, test compounds were also commonly applied disinfecting agents and antibiotics.

[3] = system: Pectobacterium atrosepticum 1043; assay: Bactericidal activity, agar diffusion, P. atrosepticum; details: Pectobacterium atrosepticum, 1043, 2 mM/L
Text: as §1, §2, §3

[4] = system: Pectobacterium carotovorum subsp. carotovorum MI; assay: Bactericidal activity, agar diffusion, P. carotovorum; details: Pectobacterium carotovorum, 2 mM/L
Text: as §1, §2, §3

[5] = system: Pseudomonas fluorescens EL-2.1; assay: Bactericidal activity, agar diffusion, Ps. fluorescens; details: Pseudomonas fluorescens, EL2.1, 2 mM/L
Text: as §1, §2, §3

[6] = system: Fusarium oxysporum IBPPM 543; assay: Fungicidal activity, radial growth inhibition, F. oxysporum; details: for EC50: Fusarium oxysporum, IBPPM543, 168 h, day 7, EC50 = 50C/I, read-out: EC50, μg/mL at day 7
Text: as §1
For the fungicidal activity analysis, radial growth (colony diameters) of the fungi on a solid medium in the absence and in the presence of the compounds 3a,c-g solutions at various concentrations were compared. The method consisted of the following: sterile, melted and then cooled to about 60°C GPY agar medium (20.0 ml) was mixed with the precisely measured volumes of the solutions under question, and poured into a sterile Petri dish (90 mm i.d.). After solidification of GPY agar, the media were inoculated by the fungus using 10-day-old cultures of F. oxysporum or P. cactorum. The inoculation was done by transferring a 5-mm (i.d.) GPY-agar block covered with mycelium to the center of the Petri dish followed by incubation in a thermostat at 27°C. The fungicidal effect was scored by the size of mycelium colony on a Petri dish compared to the control without fungicidal admixtures to GPY agar. Each treatment was performed in at least four replicates in two independent experiments. The observation period ended when the control Petri dish was filled with mycelium (usually after 12 days). The inhibition of the phytopathogen colony growth by the compounds 3a,c-g or fludioxonil solutions was calculated as a percentage by which the mycelium radial propagation was decreased compared to the unaffected control, the latter was taken as 100 % of growth (or zero percent of inhibition). The EC50 value was calculated as the compound concentration at which the radial growth of the fungus colony was decreased by 50 % relative to the non-fungicidal control, according to the formula EC50 = 50C/I based on the approach developed e.g., in [34, 35].
as §3

[7] = 150 μl per well, 36-40 h, read-out: width of the inhibition zone
[8] = read-out: Inhibition zone width (mm), not less

With CC[N+](CC)(CC)CC(=O)N/N=C1\C(=O)N(Cc2cc(C(C)(C)C)c(O)c(C(C)(C)C)c2)c2ccccc21 [Compound 3a, 2-(2-(1-(3,5-Di-tert-butyl-4-hydroxybenzyl)-2-oxoindolin-3-ylidene)hydrazinyl)-N,N,N-triethyl-2-oxoethanammonium bromide] the MBC [1] was > 500 µM, the MIC [1] was > 500 µM and the zone of inhibition at 2000 µM [2, 7] was 9 mm. For the same compound, the zone of inhibition at 2000 µM [2, 8] was ≥ 9 mm, the zone of inhibition at 2000 µM [3, 7] was 8 mm and the zone of inhibition at 2000 µM [3, 8] was ≥ 8 mm. For the same compound, the zone of inhibition at 2000 µM [4, 7] was 10 mm, the zone of inhibition at 2000 µM [4, 8] was ≥ 10 mm and the zone of inhibition at 2000 µM [5, 7] was 9 mm. The zone of inhibition at 2000 µM [5, 8] was ≥ 9 mm, the “Inhibition value, I (%)” value ([6]; C 6.02 μg/mL, age of the fungus 3 days) was 11% and the “Inhibition value, I (%)” value ([6]; C 6.02 μg/mL, age of the fungus 5 days) was 4%. For the same compound, the “Inhibition value, I (%)” value ([6]; C 6.02 μg/mL, age of the fungus 7 days) was 9%, the “Inhibition value, I (%)” value ([6]; C 6.02 μg/mL, age of the fungus 9 days) was 0% and the “Inhibition value, I (%)” value ([6]; C 12.04 μg/mL, age of the fungus 3 days) was 14%. For the same compound, the “Inhibition value, I (%)” value ([6]; C 12.04 μg/mL, age of the fungus 5 days) was 12%, the “Inhibition value, I (%)” value ([6]; C 12.04 μg/mL, age of the fungus 7 days) was 18% and the “Inhibition value, I (%)” value ([6]; C 12.04 μg/mL, age of the fungus 9 days) was 3%. For the same compound, the “Inhibition value, I (%)” value ([6]; C 24.08 μg/mL, age of the fungus 3 days) was 24%, the “Inhibition value, I (%)” value ([6]; C 24.08 μg/mL, age of the fungus 5 days) was 16% and the “Inhibition value, I (%)” value ([6]; C 24.08 μg/mL, age of the fungus 7 days) was 27%. The “Inhibition value, I (%)” value ([6]; C 24.08 μg/mL, age of the fungus 9 days) was 4%, the “Inhibition value, I (%)” value ([6]; C 36.12 μg/mL, age of the fungus 3 days) was 28% and the “Inhibition value, I (%)” value ([6]; C 36.12 μg/mL, age of the fungus 5 days) was 24%. The “Inhibition value, I (%)” value ([6]; C 36.12 μg/mL, age of the fungus 7 days) was 30%, the “Inhibition value, I (%)” value ([6]; C 36.12 μg/mL, age of the fungus 9 days) was 12% and the EC50 [6] was 33.4 µg/mL.

For CCc1cccc2c1N(Cc1cc(C(C)(C)C)c(O)c(C(C)(C)C)c1)C(=O)/C2=N\NC(=O)C[N+](CC)(CC)CC [Compound 3c, 2-(2-(1-(3,5-Di-tert-butyl-4-hydroxybenzyl)-7-ethyl-2-oxoindolin-3-ylidene)hydrazinyl)-N,N,N-triethyl-2-oxoethanammonium bromide], the MBC [1] was > 500 µM, the MIC [1] was > 500 µM and the zone of inhibition at 2000 µM [2, 7] was 10.5 mm. For the same compound, the zone of inhibition at 2000 µM [2, 8] was ≥ 10 mm, the zone of inhibition at 2000 µM [3, 7] was 9 mm and the zone of inhibition at 2000 µM [3, 8] was ≥ 9 mm. For the same compound, the zone of inhibition at 2000 µM [4, 7] was 9 mm, the zone of inhibition at 2000 µM [4, 8] was ≥ 9 mm and the zone of inhibition at 2000 µM [5, 7] was 8 mm. For the same compound, the zone of inhibition at 2000 µM [5, 8] was ≥ 8 mm, the “Inhibition value, I (%)” value ([6]; C 6.30 μg/mL, age of the fungus 3 days) was 2% and the “Inhibition value, I (%)” value ([6]; C 6.30 μg/mL, age of the fungus 5 days) was 11%. For the same compound, the “Inhibition value, I (%)” value ([6]; C 6.30 μg/mL, age of the fungus 7 days) was 30%, the “Inhibition value, I (%)” value ([6]; C 6.30 μg/mL, age of the fungus 9 days) was 17% and the “Inhibition value, I (%)” value ([6]; C 12.60 μg/mL, age of the fungus 3 days) was 24%. The “Inhibition value, I (%)” value ([6]; C 12.60 μg/mL, age of the fungus 5 days) was 26%, the “Inhibition value, I (%)” value ([6]; C 12.60 μg/mL, age of the fungus 7 days) was 33% and the “Inhibition value, I (%)” value ([6]; C 12.60 μg/mL, age of the fungus 9 days) was 23%. For the same compound, the “Inhibition value, I (%)” value ([6]; C 25.20 μg/mL, age of the fungus 3 days) was 31%, the “Inhibition value, I (%)” value ([6]; C 25.20 μg/mL, age of the fungus 5 days) was 33% and the “Inhibition value, I (%)” value ([6]; C 25.20 μg/mL, age of the fungus 7 days) was 47%. For the same compound, the “Inhibition value, I (%)” value ([6]; C 25.20 μg/mL, age of the fungus 9 days) was 27%, the “Inhibition value, I (%)” value ([6]; C 37.80 μg/mL, age of the fungus 3 days) was 44% and the “Inhibition value, I (%)” value ([6]; C 37.80 μg/mL, age of the fungus 5 days) was 42%. For the same compound, the “Inhibition value, I (%)” value ([6]; C 37.80 μg/mL, age of the fungus 7 days) was 59%, the “Inhibition value, I (%)” value ([6]; C 37.80 μg/mL, age of the fungus 9 days) was 38% and the EC50 [6] was 10.5 µg/mL.
